Reference: patent US9914732B2, “Diazabicyclo[4.3.1]decane derivatives for treatment of psychiatric disorders” (Max-Planck-Gesellschaft zur Forderung der Wissenschaften …, priority 2014, dated 2018)

Tested on: N2a cells
Assay: N2a cellular assay (neurite outgrowth)
Assay type: cell-based
Settings: N2a neuroblastoma cells, FIG. 1
Procedure: FK506 analogs have repeatedly been described as neuroprotective and […] agents in the prior arts.
Example 12: N2a Cellular Assay
At day one N2a cells were plated into 24-well plates with cover slips (pretreated with polylysine) at a density of 35,000 cells/well and cultured with DMEM (incl. FCS 10% and Pen/Strep 1%) for 24 h. Next, cells were transfected with 80 ng expression plasmids encoding Venus as well as 720 ng pRK5 (mock transfection) in a total volume of 500 μl starvation media containing different concentrations of compounds or DMSO for 36 h (media without FCS; induction of neurite outgrowth). Therefore media was removed and replaced by 400 μl DMEM (empty). Next an equivalent volume of plasmids were given to 50 μl OPTIMEM and incubated for 5 min at RT. Additionally 1.5 μl Lipofectamine 2000 was separately dissolved in 50 μl OPTIMEM. After 5 min both solutions (plasmids and Lipofectamine 2000 containing media) were combined and incubated again for another 20 min. After that 100 μl of this mixture was given to 400 μl media per well. (See also protocol of the provider—Life Technologies).
On the next day cells were washed with PBS and incubated for 30 min with 300 μl PFA (4%) and sucrose (5%) to fix cells. After fixation cells were washed three times, mounted onto microscope slides using 4 μl Vectashield (mounting media) and analyzed by fluorescence microscopy. […]

COc1ccc(OCCN2C[C@H]([C@H](O)CO)C3CCCC(C2=O)N3S(=O)(=O)c2cc(Cl)cc(Cl)c2)cc1OC (stereo partly drawn) [Compound C2a, (1S,5S,6R)-10-((3,5-dichlorophenyl)sulfonyl)-5-(1,2-dihydroxyethyl)-3-(2-(3,4-dimethoxyphenoxy)ethyl)-3, 10-diazabicyclo[4.3.1]decan-2-one]
neurite outgrowth: potently enhanced neurite outgrowth
